Laboratory results taken from ChEMBL document CHEMBL1201862, “PubChem BioAssay data set” (2004).
Structures can show the parent of a compound that is named as a salt.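 Cultured in 96-well plates, cells were exposed to test compound for 48 hours across five concentrations. At the GI50, growth is halved.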 The source made the active and inactive calls. Cut-off read from the data, not from the text of the source: active = GI50 up to about 1.1 µM and inactive = higher.

Key:
Assay in all cases: inhibition of tumour cell growth, NCI panel, 48 h
[1] = system: 786-0
[2] = system: BT-549
[3] = system: CCRF-CEM
[4] = system: COLO 205
[5] = system: DU-145
[6] = system: EKVX
[7] = system: HOP-62
[8] = system: HOP-92
[9] = system: IGROV-1
[10] = system: K562
[11] = system: MDA-MB-435
[12] = system: MOLT-4
[13] = system: NCI/ADR-RES
[14] = system: RXF 393
[15] = system: SF-295
[16] = system: SK-MEL-5
[17] = system: SNB-19
[18] = system: U-251

| SMILES | GI50 [1] | GI50 [2] | GI50 [3] | GI50 [4] | GI50 [5] | GI50 [6] | GI50 [7] | GI50 [8] | GI50 [9] | GI50 [10] | GI50 [11] | GI50 [12] | GI50 [13] | GI50 [14] | GI50 [15] | GI50 [16] | GI50 [17] | GI50 [18] |
| --- | --- | --- | --- | --- | --- | --- | --- | --- | --- | --- | --- | --- | --- | --- | --- | --- | --- | --- |
| NC(=O)NC1NC(=O)NC1=O (stereo not given) [ALLANTOIN] | > 100 µM (inactive) | > 100 µM (inactive) | > 100 µM (inactive) | > 100 µM (inactive) | > 100 µM (inactive) | > 100 µM (inactive) | > 100 µM (inactive) | > 100 µM (inactive) | > 100 µM (inactive) | > 100 µM (inactive) | > 100 µM (inactive) | > 100 µM (inactive) | > 100 µM (inactive) | > 100 µM (inactive) | > 100 µM (inactive) | > 100 µM (inactive) | > 100 µM (inactive) | > 100 µM (inactive) |
| O=P(O)(CCP(=O)(O)c1ccccc1)c1ccccc1 | > 100 µM (inactive) | > 100 µM (inactive) | > 100 µM (inactive) | > 100 µM (inactive) | > 100 µM (inactive) | > 100 µM (inactive) | > 100 µM (inactive) | > 100 µM (inactive) | > 100 µM (inactive) | > 100 µM (inactive) | > 100 µM (inactive) | > 100 µM (inactive) | > 100 µM (inactive) | > 100 µM (inactive) | > 100 µM (inactive) | > 100 µM (inactive) | > 100 µM (inactive) | > 100 µM (inactive) |
| Cc1ccc2nc(/C=N/c3ccccc3Cl)cc(C)c2c1 | 16.7 µM (inactive) | 16.1 µM (inactive) | 4.89 µM (inactive) | 50.8 µM (inactive) | 46.7 µM (inactive) | 20.4 µM (inactive) | 38.8 µM (inactive) | 25.4 µM (inactive) | 18.9 µM (inactive) | 19.1 µM (inactive) | 12.7 µM (inactive) | 5.79 µM (inactive) | 16.8 µM (inactive) | 14.5 µM (inactive) | 21.9 µM (inactive) | 14.9 µM (inactive) | 30.2 µM (inactive) | 20.7 µM (inactive) |
| CC(=O)SC(C[N+](=O)[O-])c1ccccc1 (stereo not given) | 3.95 µM (inactive) | 2.22 µM (inactive) | 2.84 µM (inactive) | 2.77 µM (inactive) | 6.37 µM (inactive) | 6.31 µM (inactive) | 15.3 µM (inactive) | 12.6 µM (inactive) | 2.32 µM (inactive) | 2.41 µM (inactive) | 2.09 µM (inactive) | 1.72 µM (inactive) | 20.1 µM (inactive) | 2.1 µM (inactive) | 6.15 µM (inactive) | 2.68 µM (inactive) | 11.9 µM (inactive) | 3.79 µM (inactive) |
| O=C(/C=C/c1ccc(-c2ccccc2)cc1)NCc1ccc(C(=O)NCCc2ccccc2)cc1 | 59.2 µM (inactive) | > 100 µM (inactive) | 18.5 µM (inactive) | > 100 µM (inactive) | > 100 µM (inactive) | > 100 µM (inactive) | 60.8 µM (inactive) | 54.6 µM (inactive) | > 100 µM (inactive) | 88.5 µM (inactive) | > 100 µM (inactive) | 96.6 µM (inactive) | > 100 µM (inactive) | 24.5 µM (inactive) | > 100 µM (inactive) | > 100 µM (inactive) | > 100 µM (inactive) | 65.3 µM (inactive) |
| CS(=O)(=O)N1CC(CCl)c2ccc([N+](=O)[O-])cc21 (stereo not given) | > 100 µM (inactive) | > 100 µM (inactive) | > 100 µM (inactive) | > 100 µM (inactive) | > 100 µM (inactive) | > 100 µM (inactive) | > 100 µM (inactive) | > 100 µM (inactive) | > 100 µM (inactive) | > 100 µM (inactive) | > 100 µM (inactive) | > 100 µM (inactive) | > 100 µM (inactive) | > 100 µM (inactive) | > 100 µM (inactive) | > 100 µM (inactive) | > 100 µM (inactive) | 58.6 µM (inactive) |
| C/C(=C\COc1cc(O)c2c(c1)C(=O)c1cc(C)cc(O)c1C2=O)CCC1OC1(C)C (stereo not given) | 58.2 µM (inactive) | 26.7 µM (inactive) | 11.2 µM (inactive) | > 100 µM (inactive) | > 100 µM (inactive) | > 100 µM (inactive) | 46 µM (inactive) | 29.4 µM (inactive) | 68.9 µM (inactive) | 83.8 µM (inactive) | > 100 µM (inactive) | 7.85 µM (inactive) | > 100 µM (inactive) | 30.2 µM (inactive) | > 100 µM (inactive) | 31.2 µM (inactive) | > 100 µM (inactive) | 63.8 µM (inactive) |
| CC(C)CC1NC(=O)CCC(NC(=O)C(Cc2ccc(O)cc2)NC(=O)OCc2ccccc2)C(=O)NC(Cc2ccccc2)C(=O)NC(Cc2ccccc2)NC1=O (stereo not given) | > 100 µM (inactive) | > 100 µM (inactive) | > 100 µM (inactive) | > 100 µM (inactive) | > 100 µM (inactive) | > 100 µM (inactive) | > 100 µM (inactive) | > 100 µM (inactive) | > 100 µM (inactive) | > 100 µM (inactive) | > 100 µM (inactive) | > 100 µM (inactive) | > 100 µM (inactive) | > 100 µM (inactive) | > 100 µM (inactive) | > 100 µM (inactive) | 56.6 µM (inactive) | > 100 µM (inactive) |
| CCc1nc(N)nc(N)c1-c1ccc(NC)c([N+](=O)[O-])c1 | 0.558 µM (active) | 26.1 µM (inactive) | 0.531 µM (active) | 4.84 µM (inactive) | 2.14 µM (inactive) | 8.41 µM (inactive) | 1.79 µM (inactive) | 8.81 µM (inactive) | 0.904 µM (active) | 0.0631 µM (active) | 0.586 µM (active) | 1 µM (active) | 1.2 µM (inactive) | 16 µM (inactive) | 0.753 µM (active) | 0.63 µM (active) | 9.08 µM (inactive) | 0.631 µM (active) |
| CCOP(=O)(OCC)OC1c2[nH]cc(C(=O)OCc3ccccc3)c2-c2cc(C(=O)OC)[nH]c2C1OC (stereo not given) | 7.76 µM (inactive) | 12.1 µM (inactive) | > 24.8 µM (inactive) | 6.89 µM (inactive) | 11 µM (inactive) | 5.94 µM (inactive) | 7.76 µM (inactive) | 4.28 µM (inactive) | 7.59 µM (inactive) | > 20 µM (inactive) | > 60.1 µM (inactive) | 3.58 µM (inactive) | 7.53 µM (inactive) | 8.18 µM (inactive) | 5 µM (inactive) | 7.46 µM (inactive) | 14.7 µM (inactive) | 11.4 µM (inactive) |
| O=C(O)CSSCC(=O)O | > 100 µM (inactive) | > 100 µM (inactive) | > 100 µM (inactive) | > 100 µM (inactive) | > 100 µM (inactive) | > 100 µM (inactive) | > 100 µM (inactive) | > 100 µM (inactive) | > 100 µM (inactive) | > 100 µM (inactive) | > 100 µM (inactive) | > 100 µM (inactive) | > 100 µM (inactive) | > 100 µM (inactive) | > 100 µM (inactive) | > 100 µM (inactive) | > 100 µM (inactive) | > 100 µM (inactive) |
| CN1CCC(CN2c3ccccc3Sc3ccccc32)C1 (stereo not given) [METHDILAZINE HYDROCHLORIDE] | 14.7 µM (inactive) | 16.8 µM (inactive) | 15.2 µM (inactive) | 11.5 µM (inactive) | 17.8 µM (inactive) | 16.8 µM (inactive) | 15 µM (inactive) | 12.8 µM (inactive) | 17.3 µM (inactive) | 12.3 µM (inactive) | 10.1 µM (inactive) | 16.3 µM (inactive) | 15.2 µM (inactive) | 3.5 µM (inactive) | 16.1 µM (inactive) | 13.7 µM (inactive) | 17.9 µM (inactive) | 13.7 µM (inactive) |
| O=C(O)c1nn(-c2ccc(Cl)cc2)c2c1C(=O)c1ccccc1C2=O | > 100 µM (inactive) | > 100 µM (inactive) | < 0.01 µM (active) | > 100 µM (inactive) | > 100 µM (inactive) | > 100 µM (inactive) | > 100 µM (inactive) | > 100 µM (inactive) | > 100 µM (inactive) | > 100 µM (inactive) | > 100 µM (inactive) | 22 µM (inactive) | > 100 µM (inactive) | 17.5 µM (inactive) | > 100 µM (inactive) | 20.5 µM (inactive) | > 100 µM (inactive) | 55.7 µM (inactive) |
| C[n+]1ccc2/c(=C\C#N)c3ccccc3n21 | 52.2 µM (inactive) | 16.6 µM (inactive) | 20 µM (inactive) | 19.7 µM (inactive) | 15.8 µM (inactive) | 24.9 µM (inactive) | 30.7 µM (inactive) | 22.4 µM (inactive) | 23.9 µM (inactive) | 61.2 µM (inactive) | 23.3 µM (inactive) | 30.8 µM (inactive) | > 100 µM (inactive) | 38.1 µM (inactive) | 33.7 µM (inactive) | 16.7 µM (inactive) | 4.27 µM (inactive) | 12.9 µM (inactive) |
| O=C1c2cc(Cc3ccccc3)c(=O)c(Cc3ccccc3)cc2C(=O)c2cc(Cc3ccccc3)c(=O)c(Cc3ccccc3)cc21 | > 100 µM (inactive) | > 100 µM (inactive) | 74.5 µM (inactive) | > 100 µM (inactive) | > 100 µM (inactive) | > 100 µM (inactive) | > 100 µM (inactive) | > 100 µM (inactive) | > 100 µM (inactive) | 89.9 µM (inactive) | > 100 µM (inactive) | 97.3 µM (inactive) | > 100 µM (inactive) | 24.4 µM (inactive) | > 100 µM (inactive) | > 100 µM (inactive) | > 100 µM (inactive) | > 100 µM (inactive) |
